The source of these data is ChEMBL document CHEMBL1121411, “Convenient synthesis of 10-deazaaminopterin via a pteridine ylide” (J Med Chem, 1980).

This test concerns HEp-2. Kind of test: Tested for cloning suppression test against H.Ep.-2 cells. Format: functional. The note with it: Homo sapiens, read-out: ED50 (the source's name).

`Nc1cc(N)c2cc(CCc3ccc(C(=O)NC(CCC(=O)O)C(=O)O)cc3)ccc2c1` (configuration not stated): the EC50 is 0.9 nM.

With `CN(Cc1cnc2nc(N)nc(N)c2n1)c1ccc(C(=O)N[C@@H](CCC(=O)O)C(=O)O)cc1` [METHOTREXATE], the EC50 amounted to 2.4 nM.
